Reference: patent US9145403B2, “Heterocyclic alkanol derivatives” (Bayer Intellectual Property GmbH, priority 2010, dated 2015)

Legend:
Leptosphaeria nodorum = Leptosphaeria nodorum test (wheat)/protective; type: in vivo; conditions: young wheat plants sprayed at 500 ppm, inoculated 1 day after treatment, evaluation 7-9 days after inoculation; 0% = control, 100% = no infection
Description: Leptosphaeria nodorum Test (Wheat)/Protective Solvent: 49 parts by weight of N,N-dimethyformamide Emulsifler: 1 part by weight of alkylaryl polyglycol ether To produce an appropriate active ingredient formulation, 1 part by weight of active ingredient is mixed with the specified amounts of solvent and emulsifler, and the concentrate is diluted with water to the desired concentration. To test for protective activity, young plants are sprayed with the formulation of active ingredient at the stated application rate. One day after the treatment, the plants are inoculated with an aqueous spore suspension of Leptosphaeria nodorum and then remain at 100% relative air humidity and 22° C. for 48 h. The plants are then placed in a greenhouse at 90% relative air humidity and a temperature of 22° C. Evaluation follows 7-9 days after the inoculation. 0% means an efficacy which corresponds to that of the control, whereas an efficacy of 100% means that no infection is observed. In this test, the following inventive compounds, at an active ingredient concentration of 500 ppm, show an efficacy of 70% or more.

Alternaria solani = experiment: Alternaria test (tomato)/protective; type: in vivo; conditions: young tomato plants sprayed at 500 ppm, inoculated 1 day after treatment, evaluation 7 days after inoculation; 0% = control, 100% = no infection
Description: Alternaria Test (Tomato)/Protective Solvent: 49 parts by weight of N,N-dimethyformamide Emulsifier: 1 part by weight of alkylaryl polyglycol ether To produce an appropriate active ingredient formulation, 1 part by weight of active ingredient is mixed with the specified amounts of solvent and emulsifier, and the concentrate is diluted with water to the desired concentration. To test for protective activity, young tomato plants are sprayed with the formulation of active ingredient at the stated application rate. One day after the treatment, the plants are inoculated with a spore suspension of Alternaria solani and are then left at 100% relative humidity and 22° C. for 24 hours. The plants are then left at 96% relative air humidity and a temperature of 20° C. Evaluation follows 7 days after the inoculation. 0% means an efficacy which corresponds to that of the control, whereas an efficacy of 100% means that no infection is observed. In this test, the following inventive compounds, at an active ingredient concentration of 500 ppm, show an efficacy of 70% or more.

Sphaerotheca fuliginea = experiment: Sphaerotheca test (cucumber)/protective; type: in vivo; conditions: young cucumber plants sprayed at 500 ppm, inoculated 1 day after treatment, evaluation 7 days after inoculation; 0% = control, 100% = no infection
Description: Table D: Sphaerotheca Test (Cucumber)/Protective Solvent: 49 parts by weight of N,N-dimethylformamide Emulsifier: 1 part by weight of alkylaryl polyglycol ether To produce an appropriate active ingredient formulation, 1 part by weight of active ingredient is mixed with the specified amounts of solvent and emulsifier, and the concentrate is diluted with water to the desired concentration. To test for protective activity, young cucumber plants are sprayed with the formulation of active ingredient at the stated application rate. 1 day after the treatment, the plants are inoculated with a spore suspension of Sphaerotheca fuliginea. The plants are then placed in a greenhouse at 70% relative air humidity and a temperature of 23° C. Evaluation follows 7 days after the inoculation. 0% means an efficacy which corresponds to that of the control, whereas an efficacy of 100% means that no infection is observed. In this test, the following inventive compounds, at an active ingredient concentration of 500 ppm, show an efficacy of 70% or more.

Puccinia recondita = experiment: Puccinia test (wheat)/protective; type: in vivo; conditions: young wheat plants sprayed at 500 ppm, inoculated 1 day after treatment, evaluation 7-9 days after inoculation; 0% = control, 100% = no infection
Description: Puccinia Test (Wheat)/Protective Solvent: 49 parts by weight of N,N-dimethyformamide Emulsifier: 1 part by weight of alkylaryl polyglycol ether To produce an appropriate active ingredient formulation, 1 part by weight of active ingredient is mixed with the specified amounts of solvent and emulsifier, and the concentrate is diluted with water to the desired concentration. To test for protective activity, young plants are sprayed with the formulation of active ingredient at the stated application rate. One day after the treatment, the plants are inoculated with a spore suspension of Puccinia recondita and then left at 100% relative humidity and 22° C. for 48 h. The plants are then left at 80% relative air humidity and a temperature of 20° C. Evaluation follows 7-9 days after the inoculation. 0% means an efficacy which corresponds to that of the control, whereas an efficacy of 100% means that no infection is observed. In this test, the following inventive compounds, at an active ingredient concentration of 500 ppm, show an efficacy of 70% or more.

[1] = log P by HPLC (EEC Directive 79/831 Annex V.A8), reversed-phase C18; type: physicochemical; conditions: reversed-phase C18 HPLC column; method [a]: LC-MS, acidic range, pH 2.7, 0.1% aqueous formic acid/acetonitrile, linear gradient 10% to 95% acetonitrile
Description: The log P values were measured in accordance with EEC Directive 79/831 Annex V.A8 by HPLC (High Performance Liquid Chromatography) using reversed-phase columns (C 18) by the following methods: [a] The LC-MS determination in the acidic range is effected at pH 2.7 with 0.1% aqueous formic acid and acetonitrile (contains 0.1% formic acid) as eluents; linear gradient from 10% acetonitrile to 95% acetonitrile.

| Compound | Efficacy (%) (Leptosphaeria nodorum) | Efficacy (%) (Alternaria solani) | Efficacy (%) (Sphaerotheca fuliginea) | Efficacy (%) (Puccinia recondita) | chromatographic logP [1] |
| --- | --- | --- | --- | --- | --- |
| CC(C)(C)c1ncc(OCC(O)(c2cncs2)C(C)(C)C)cn1 (centres unmarked) [Compound 2] | 95% | – | – | – | – |
| CC(C)(C)C(O)(COc1ccc(Cl)nc1)c1cncs1 (centres unmarked) [Compound 3] | – | 89% | 80% | 80% | – |
| CC(C)(C)C(O)(COc1cccnc1)c1cncs1 (centres unmarked) [Compound 4] | – | – | – | 80% | 0.89 |
| CC(C)(C)C(O)(COc1cncnc1)c1cncs1 (centres unmarked) [Compound 6] | 70% | – | – | – | 1.4 |
